Read-outs that look alike come from different tables or passages of the source.
Tests used:
[1] = molecular target: recombinant human NF-kappaB-inducing kinase (NIK/MAP3K14) (Homo sapiens (Human), UniProt Q99558); assay: Inhibition of auto-phosphorylation of recombinant human NIK/MAP3K14 activity (AlphaScreen); format: biochemical; conditions: averaged values over all measurements on all batches
Summary of the method: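 GST-tagged NIK at 0.2 nM autophosphorylated for 1 h at 25° C with 25 microM ATP in Tris pH 7.5, MgCl2, 1% DMSO. Phospho-IKK Ser176/180 antibody with AlphaScreen beads detected product. IC50 came from sigmoidal fits of blank-corrected % inhibition.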

[2] = tested on: P-IKKα levels in L363 cells; assay: Effect of compounds on P-IKKα levels in L363 (NIK translocated multiple myeloma) cells; format: cell-based, human; conditions: averaged values, read-out: Inhibition of pIKKα_L-363 (IC50 (nM))
Description: Effect of compounds on P-IKKα levels in L363 (NIK translocated multiple myeloma) cells
All compounds tested were dissolved in DMSO and further dilutions were made in culture medium. Final DMSO concentration was 1% (v/v) in cell assays. The human L363 cells (ATCC) were cultured in RPMI 1640 medium supplemented with GlutaMax and 10% fetal calf serum (PAA). Cells were routinely maintained at densities of 0.2×10^6 cells per ml-1×10^6 cells per ml at 37° C. in a humidified 5% CO2 atmosphere. Cells were passaged twice a week splitting back to obtain the low density. Cells were seeded in 96 well plates (Nunc 167008) at 2×10^6 per ml media in a volume of 75 μl per well plus 25 μl 1 μg/ml recombinant human B-cell activating factor (BAFF/BLyS/TNFSF13B). Seeded cells were incubated at 37° C. in a humidified 5% CO2 atmosphere for 24 hr. Drugs and/or solvents were added (20 μl) to a final volume of 120 μl. Following 2 hr treatment plates were removed from the incubator and cell lysis was achieved by the addition of 30 μl 5× lysis buffer followed by shaking on a plate shaker at 4° C. for 10 min. At the end of this incubation lysed cells were centrifuged at 800×g for 20 min at 4° C. and the lysate was assessed for P-IKKα levels by sandwich immuno-assay carried out in anti-rabbit antibody coated Mesoscale plates. Within an experiment, the results for each treatment were the mean of 2 replicate wells. For initial screening purposes, compounds were tested using an 8 point dilution curve (serial 1:3 dilutions). For each experiment, controls (containing MG132 and BAFF but no test drug) and a blank incubation (containing MG132 and BAFF and 10 μM ADS125117, a test concentration known to give full inhibition) were run in parallel. The blank incubation value was subtracted from all control and sample values. To determine the IC50 a sigmoidal curve was fitted to the plot of % inhibition of control P-IKKα levels versus Log10 compound concentration.

JJN-3 cells = assay: Antiproliferative activity on JJN-3 (NIK translocated) multiple myeloma cells (CellTiter-Glo); format: cell-based, human; conditions: JJN-3 (NIK translocated) cells, 96 hr, averaged values, read-out: JJN-3 Proliferation inhibition (IC50 (nM))
Summary of the method: (§1)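 Suspension myeloma cells in RPMI 1640 with 10% FCS, plated at 15000 (JJN-3) or 20000 (KMS12-BM) cells/well, were treated 96 hr with 9-point 1:3 compound dilutions at 0.3% DMSO. CellTiter-Glo luminescence, minus a time-zero blank, was expressed as % of untreated control growth.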

KMS12-BM cells = assay: Antiproliferative activity on KMS12-BM (NIK WT) multiple myeloma cells (CellTiter-Glo); format: cell-based, human; conditions: KMS12-BM (NIK WT) cells, 96 hr, averaged values, read-out: KMS-12 Proliferation inhibition (IC50 (nM))
Summary of the method: as §1

[3] = Homo sapiens, L-363, L363 cells

Chain of recombinant human NF-kappaB-inducing kinase (NIK/MAP3K14) (Q99558 whole entry): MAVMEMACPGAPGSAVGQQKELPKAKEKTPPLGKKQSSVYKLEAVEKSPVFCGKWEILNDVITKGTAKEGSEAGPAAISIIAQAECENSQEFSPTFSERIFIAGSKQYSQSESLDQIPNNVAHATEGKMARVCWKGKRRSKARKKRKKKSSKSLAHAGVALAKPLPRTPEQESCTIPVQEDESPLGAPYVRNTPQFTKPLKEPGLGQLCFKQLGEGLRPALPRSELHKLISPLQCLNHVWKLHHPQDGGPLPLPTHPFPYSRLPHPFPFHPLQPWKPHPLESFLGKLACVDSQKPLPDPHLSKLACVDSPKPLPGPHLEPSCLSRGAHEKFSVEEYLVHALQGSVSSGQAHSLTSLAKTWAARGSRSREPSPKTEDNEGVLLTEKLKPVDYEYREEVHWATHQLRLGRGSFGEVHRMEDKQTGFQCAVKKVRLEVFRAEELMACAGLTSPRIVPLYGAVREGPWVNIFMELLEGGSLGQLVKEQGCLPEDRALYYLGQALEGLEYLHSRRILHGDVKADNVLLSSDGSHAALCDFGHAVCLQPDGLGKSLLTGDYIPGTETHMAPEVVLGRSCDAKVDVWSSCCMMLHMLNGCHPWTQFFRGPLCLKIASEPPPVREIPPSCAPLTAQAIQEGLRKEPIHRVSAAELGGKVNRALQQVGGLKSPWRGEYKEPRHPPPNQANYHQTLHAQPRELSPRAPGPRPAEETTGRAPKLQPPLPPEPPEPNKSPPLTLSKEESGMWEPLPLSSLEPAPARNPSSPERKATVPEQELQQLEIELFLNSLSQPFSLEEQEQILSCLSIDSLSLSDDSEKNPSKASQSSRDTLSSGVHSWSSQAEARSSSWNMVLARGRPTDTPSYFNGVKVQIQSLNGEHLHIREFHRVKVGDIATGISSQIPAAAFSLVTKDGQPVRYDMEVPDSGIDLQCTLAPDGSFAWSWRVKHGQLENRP

Compound	IC50 [1]	IC50 [2, 3]	IC50 (JJN-3 cells; Homo sapiens, JJN-3, 96 h)	IC50 (KMS12-BM cells; Homo sapiens, KMS-12-BM, 96 h)	IC50 (KMS12-BM cells)	IC50 ([2]; L363 cells)	IC50 (JJN-3 cells)
Cc1cc(Nc2nccc(-c3cc(C#N)c4c(c3)[C@@](C)(CO)CN4)n2)n(CC2CCCOC2)n1 (mixture of isomers) [Compound 94]	5.6 nM	7 nM	178 nM	4170 nM			
Cc1cc(Nc2nccc(-c3cc(C#N)c4c(c3)[C@@](C)(CO)CN4)n2)n(CC2COCCO2)n1 (single isomer, unassigned) [Compound 85]	9.8 nM				~4900 nM	31 nM	380 nM
Cc1cc(Nc2nccc(-c3cc(C#N)c4c(c3)[C@@](C)(CO)CN4)n2)n(CC2CCCN(C)C2)n1 (single isomer, unassigned) [Compound 141]	42 nM				> 10000 nM	813 nM	79 nM
Cc1nn(C)cc1Nc1nccc(-c2cc(C#N)c3c(c2)C(C)(CO)CN3)n1 (stereo not shown) [Compound 7]		2 nM	112 nM	~1740 nM			
Cc1cc(Nc2nccc(-c3cc(C#N)c4c(c3)[C@@](C)(CO)CN4)n2)nn1CC1CCOCC1 [Compound 60]	2 nM	5 nM	72 nM	~501 nM			
Cc1cc(Nc2nccc(-c3cc(C#N)c4c(c3)[C@@](C)(CO)CN4)n2)nn1CC1CCCCO1 (stereo partly shown) [Compound 71]	2.8 nM				813 nM	4 nM	102 nM
Cc1c(Nc2nccc(-c3cc(C#N)c4c(c3)[C@@](C)(CO)CN4)n2)cnn1C1CCOCC1 [Compound 72]	2.9 nM	3 nM	102 nM	724 nM			
C=CCn1nc(C)cc1Nc1nccc(-c2cc(C#N)c3c(c2)[C@@](C)(CO)CN3)n1 [Compound 73]	1.9 nM	2 nM	195 nM	1320 nM			
Cc1c(Nc2nccc(-c3cc(C#N)c4c(c3)[C@@](C)(CO)CN4)n2)cnn1CC1CCOCC1 [Compound 76]	1.2 nM	2 nM	141 nM	741 nM			
Cc1cc(Nc2nccc(-c3cc(C#N)c4c(c3)[C@@](C)(CO)CN4)n2)n(CC2CCN(C)CC2)n1 [Compound 83]	10 nM	514 nM	111 nM	148 nM			
CN(C)C(=O)c1cc(Nc2nccc(-c3cc(C#N)c4c(c3)C(C)(CO)CN4)n2)n(C)n1 (stereo not shown) [Compound 86]	2.6 nM	15 nM	871 nM	~3720 nM			
Cc1cc(Nc2nccc(-c3cc(C#N)c4c(c3)[C@@](C)(CO)CN4)n2)n(CC(=O)N2CCCC2)n1 [Compound 88]	6.8 nM	9 nM	2140 nM	> 10000 nM			
CC(C)n1nc(C2CCOCC2)cc1Nc1cc(-c2cc(C#N)c3c(c2)[C@@](C)(CO)CN3)ncn1 [Compound 91]	5.5 nM	13 nM	324 nM	> 10000 nM			
Cc1cc(Nc2nccc(-c3cc(C#N)c4c(c3)[C@@](C)(CO)CN4)n2)n(CCCO)n1 [Compound 92]	3.5 nM	7 nM	~224 nM	1510 nM			
CC(C)CCn1nc(C#N)cc1Nc1nccc(-c2cc(C#N)c3c(c2)[C@@](C)(CO)CN3)n1 [Compound 93]	11 nM	37 nM	182 nM	457 nM			
Cc1cc(Nc2nccc(-c3cc(C#N)c4c(c3)[C@@](C)(CO)CN4)n2)nn1CCC1CC1 [Compound 95]	1.6 nM	4 nM	100 nM	871 nM			
Cc1cc(Nc2nccc(-c3cc(C#N)c4c(c3)[C@@](C)(CO)CN4)n2)n(CCC2CC2)n1 [Compound 96]	1.6 nM	12 nM	76 nM	3800 nM			
CC(C)Oc1nn(CCN2CCOCC2)cc1Nc1nccc(-c2cc(C#N)c3c(c2)[C@@](C)(CO)CN3)n1 [Compound 207]	15.5 nM	93 nM					
Cc1cc(Nc2nccc(-c3cc(C#N)c4c(c3)[C@@](C)(CO)CN4)n2)n(CC2CCN(CC(=O)O)CC2)n1 [Compound 214]	18.6 nM	2630 nM					
CNC(=O)c1cc(Nc2nccc(-c3cc(C#N)c4c(c3)[C@@](C)(CO)CN4)n2)n(CC(C)C)n1 [Compound 219]	9.5 nM	100 nM	214 nM				
Cn1ccc(Nc2nccc(-c3cc(C#N)c4c(c3)[C@](C)(CN)CN4)n2)n1 [Compound 223]	224 nM					269 nM	

Second part, the molecule after the results:

IC50 [1]	IC50 [2, 3]	IC50 (JJN-3 cells; Homo sapiens, JJN-3, 96 h)	IC50 (KMS12-BM cells; Homo sapiens, KMS-12-BM, 96 h)	IC50 (KMS12-BM cells)	IC50 ([2]; L363 cells)	IC50 (JJN-3 cells)	Compound
4.3 nM	11 nM	195 nM		851 nM			Cc1cc(Nc2nccc(-c3cc(C#N)c4c(c3)[C@@](C)(CO)CN4)n2)n(CC2CCOC2)n1 (single isomer, unassigned) [Compound 81]
~5 nM				380 nM	13 nM	182 nM	Cc1cc(Nc2nccc(-c3cc(C#N)c4c(c3)[C@@](C)(CO)CN4)n2)n(CC2CCOC2)n1 (single isomer, unassigned) [Compound 82]
11 nM		437 nM		> 10000 nM	11 nM		Cc1cc(Nc2nccc(-c3cc(C#N)c4c(c3)[C@@](C)(CO)CN4)n2)n(CC2COCCO2)n1 (single isomer, unassigned) [Compound 84]
8.3 nM			6460 nM		145 nM	174 nM	Cc1cc(Nc2nccc(-c3cc(C#N)c4c(c3)[C@@](C)(CO)CN4)n2)n(CC2CCCN(C)C2)n1 (single isomer, unassigned) [Compound 140]
7.9 nM	4 nM	209 nM	> 10000 nM				CC(C)n1nc(Nc2nccc(-c3cc(C#N)c4c(c3)C(C)(CO)CN4)n2)cc1C(=O)NC1CCOCC1 (stereo not shown) [Compound 35]
4.2 nM	68 nM	398 nM	5980 nM				COCCn1nc(C)cc1Nc1nccc(-c2cc(C#N)c3c(c2)[C@@](C)(CO)CN3)n1 [Compound 42]
	11 nM	134 nM	2090 nM				COCCCn1nc(C)cc1Nc1nccc(-c2cc(C#N)c3c(c2)[C@@](C)(CO)CN3)n1 [Compound 49]
3.8 nM	6 nM			1860 nM		209 nM	Cc1cc(Nc2nccc(-c3cc(C#N)c4c(c3)[C@@](C)(CO)CN4)n2)nn1CC1CCCCO1 (stereo partly shown) [Compound 70]
~6.5 nM	34 nM	3240 nM	> 10000 nM				Cc1cc(Nc2nccc(-c3cc(C#N)c4c(c3)[C@@](C)(CO)CN4)n2)n(CC(=O)N2CC(F)(F)C2)n1 [Compound 87]
3.7 nM	~85 nM	427 nM	> 10000 nM				Cc1cc(Nc2nccc(-c3cc(C#N)c4c(c3)[C@@](C)(CO)CN4)n2)n(CC(=O)N(C)C2CC2)n1 [Compound 89]
28.2 nM	141 nM						CN1CCN(Cc2c(Nc3nccc(-c4cc(C#N)c5c(c4)[C@@](C)(CO)CN5)n3)cnn2C)CC1 [Compound 209]
14.8 nM	204 nM						CC(C)n1nc(C(=O)N(C)C2CC2)cc1Nc1nccc(-c2cc(C#N)c3c(c2)[C@@](C)(CO)CN3)n1 [Compound 211]
12 nM	15 nM						Cn1ccc(Nc2nccc(-c3cc(C#N)c4c(c3)[C@@](C)(CN)CN4)n2)n1 [Compound 222]

Reference: US11136311B2, “Heteroaromatic derivatives as NIK inhibitors” (Janssen Pharmaceutica NV, priority 2016, dated 2021)
